Measurements taken from patent US5196292A, “Nucleated high contrast photographic elements containing ballasted thioether isothioureas to inhibit pepper fog and restrain image spread” (priority 1991, dated 1993).

Columns and labels:
[1] = pepper fog spot count by electronic image analyzer, change versus control; conditions: for Delta Log PF (pepper fog): Table I, 0.5 mmol/Ag mol, spots >10 micrometer diameter in 600 square millimeters, -0.3 = two times reduction; for reduction in pepper fog (in words): from Table I, versus control
Method: (§1) Each coating used in obtaining the data provided in these examples was prepared on a polyester support, using a monodispersed 0.23 micrometer cubic, rhodium-doped, sulfur plus gold sensitized AgClBr(70/30) emulsion at 3.24 g/m^2 Ag, 2.35 g gel/m^2 and 1.00 g latex/m^2, where the latex is a copolymer of methyl acrylate, 2-acrylamido-2-methylpropane sulfonic acid and 2-acetoacetoxyethylmethacrylate. Sulfur and gold sensitization was provided by addition of 1.5 mg/Ag mole of 1,3-dicarboxymethyl-1,3-dimethyl-2-thiourea and 1.1 mg/Ag mole of potassium tetrachloroaurate. The silver halide emulsion also contained, in amounts of 50, 400, and 200 mg/Ag mole, respectively, the antifoggants 1-(3-acetamidophenyl)-5-mercaptotetrazole, 5-carboxy-4-hydroxy-6-methyl-2-methyl-mercapto1,3,3a,7-tetra-azaindene and 5-bromo-4-hydroxy-6-methyl-1,3,3a,7-tetraazaindene. The emulsion was spectr sensitized at 208 mg/Ag mol with a sensitizing dye of the formula: [drawing 17] and the emulsion layer was overcoated with gelatin containing polymethylmethacrylate beads. The nucleating agent was added as a methanol solution to the emulsion melts at a level of 0.2 millimoles (mM) per mole of silver. The compound employed as the nucleating agent is represented by the formula: [drawing 18]
(§2) An "incorporated booster" was added as a methanol solution in an amount of 2 g/Ag mol. The compound employed as the "incorporated booster" is represented by the formula: [drawing 19] where Pr represents n-propyl
(§3) Ballasted thioether isothioureas I to VII were incorporated n the emulsion at 0.5 mmol/Ag mol as methanol solutions. Coatings were exposed through a 0.1 Log E step tablet for five seconds to a 3000° K. tungsten light source and processed for 30 seconds at 30° C. in the developer solution. Processing was carried out in a KODAK KODAMATIC Model 42S processor.
(§4) The concentrate was diluted at a ratio of one part of concentrate to three parts of water to produce a working strength developing solution with a pH of 10.5.
(§5) An electronic image analyzer was used to scan processed unexposed samples and count the number of pepper fog spots (>10 micrometer diameter) contained in an area of 600 square millimeters. Standard sensitometry exposures were processed and analyzed to monitor speed and shoulder density effects.
(§6) Sensitometry parameters are expressed in Table I in terms of the change produced by incorporation of the ballasted thioether isothiourea versus the control which contained no isothiourea compound and was processed under identical conditions. Values are reported for speed, practical density point (PDP, a measure of shoulder development) and pepper fog (PF). Therefore, the changes in speed, practical density point and pepper fog produced by the ballasted thioether isothiourea are directly recorded in the table. By definition, the delta log speed, delta PDP and delta log PF for the control are zero.
(§7) In each of examples 1 to 7, the ballasted thioether isothiourea was employed in the form of the hydrochloride salt. Comparative test A utilized the hydrobromide salt of isothiourea compound "A" of the formula: [drawing 20] Comparative test B utilized the hydrobromide salt of isothiourea compound "B" of the formula: [drawing 21] Both compounds A and B were utilized at a concentration of 0.5 mmol/Ag mol.

[2] = sensitometry: change in speed and practical density point versus control; conditions: Table I; for Delta Log Speed: 0.5 mmol/Ag mol isothiourea, change versus control without isothiourea; for Delta PDP (practical density point): 0.5 mmol/Ag mol, density at 0.4 log E past speed point, Test PDP - Control PDP
Method: as §1, §2, §3, §4, §5, §6, §7

[3] = image spread: halftone dot growth rate during development; conditions: for Dot Growth Rate: Table II, 0.5 mmol/Ag mol, control 0.63 microns/sec; for reduction of dot growth rate (in words): from Table II, versus control, silver chlorobromide emulsion
Method: as §1, §2, §3
Each of the coatings was also analyzed for the effect upon image spread of the incorporation of the isothiourea compound.
Image spread measurements were performed by following the growth in diameter of halftone dots with development time. The films were contact exposed to a 52 line/cm 90% tint to produce a 10% exposed dot pattern. The films were then developed in a device that measures the infrared (IR) density during development. The integrated IR halftone density of the developing tint pattern was converted to the equivalent dot diameter using the relation between integrated density and percent dot area. The resulting plots of increasing dot diameter with development time were linear (constant dot growth rate) during the first 60 to 90 seconds of development.

Row | Structure (SMILES) | Delta Log PF (pepper fog) [1] | reduction in pepper fog (in words) [1] | Delta Log Speed [2] | Delta PDP (practical density point) [2] | Dot Growth Rate [3] [microns/sec] | reduction of dot growth rate (in words) [3]
1 | CCCCCCCCSC(=N)N [Compound A, reference compound] | -0.12 | also reduced pepper fog, but to a much lesser extent | -0.02 | -0.22 | 0.62 | ineffective in reducing dot growth rate
2 | N=C(N)SCCSc1ccccc1 [VI] | -0.48 | – | -0.01 | -0.19 | 0.60 | –
3 | N=C(N)SCCSCc1ccccc1 [VII] | -0.86 | reducing pepper fog by a factor of almost ten times | -0.03 | -0.42 | 0.54 | –
4 | CCCCCCCCCCSCCCSC(=N)N [IV] | -0.43 | – | -0.01 | -0.39 | 0.58 | –
5 | CCCCCCCCCCCCSC(=N)N [B, reference compound] | -0.07 | also reduced pepper fog, but to a much lesser extent | -0.02 | -0.34 | 0.62 | ineffective in reducing dot growth rate
6 | CCCCCCSCCSC(=N)N [I] | -0.14 | – | -0.01 | -0.06 | 0.55 | –
7 | CCCCCCCCCCSCCSC(=N)N [II] | -0.46 | – | -0.03 | -0.14 | 0.58 | –
8 | CCCCCCSCCCSC(=N)N [III] | -0.58 | – | -0.02 | -0.36 | 0.54 | –
9 | CCCCSCCSC(=N)N [V] | -0.33 | – | -0.01 | -0.38 | 0.57 | –
